Source: ChEMBL document CHEMBL5620419, “Discovery of new Lenalidomide derivatives as potent and selective GSPT1 degraders” (Eur J Med Chem, 2023)

Target: Protein cereblon/Eukaryotic peptide chain release factor GTP-binding subunit ERF3A (Homo sapiens, UniProt P15170+Q96SW2)
Assay: PROTAC activity at CRBN/GSPT1 in human U-937 cells assessed as degradation of GSPT1 measured after 6 hrs by Western blot analysis
Type: cell-based

Sequence of Protein cereblon/Eukaryotic peptide chain release factor GTP-binding subunit ERF3A (Q96SW2 whole entry): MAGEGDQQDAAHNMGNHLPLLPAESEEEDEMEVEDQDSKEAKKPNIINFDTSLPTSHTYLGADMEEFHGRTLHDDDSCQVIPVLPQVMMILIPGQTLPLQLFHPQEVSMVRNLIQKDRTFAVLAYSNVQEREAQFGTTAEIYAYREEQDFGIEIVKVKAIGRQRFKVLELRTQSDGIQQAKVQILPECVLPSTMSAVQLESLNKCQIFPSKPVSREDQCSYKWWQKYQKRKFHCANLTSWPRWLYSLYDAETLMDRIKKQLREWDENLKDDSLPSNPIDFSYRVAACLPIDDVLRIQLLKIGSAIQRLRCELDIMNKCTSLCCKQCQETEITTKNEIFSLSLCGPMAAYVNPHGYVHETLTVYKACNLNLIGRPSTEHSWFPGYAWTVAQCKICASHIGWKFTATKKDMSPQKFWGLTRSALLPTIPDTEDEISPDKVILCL
Sequence of Protein cereblon/Eukaryotic peptide chain release factor GTP-binding subunit ERF3A (P15170 whole entry): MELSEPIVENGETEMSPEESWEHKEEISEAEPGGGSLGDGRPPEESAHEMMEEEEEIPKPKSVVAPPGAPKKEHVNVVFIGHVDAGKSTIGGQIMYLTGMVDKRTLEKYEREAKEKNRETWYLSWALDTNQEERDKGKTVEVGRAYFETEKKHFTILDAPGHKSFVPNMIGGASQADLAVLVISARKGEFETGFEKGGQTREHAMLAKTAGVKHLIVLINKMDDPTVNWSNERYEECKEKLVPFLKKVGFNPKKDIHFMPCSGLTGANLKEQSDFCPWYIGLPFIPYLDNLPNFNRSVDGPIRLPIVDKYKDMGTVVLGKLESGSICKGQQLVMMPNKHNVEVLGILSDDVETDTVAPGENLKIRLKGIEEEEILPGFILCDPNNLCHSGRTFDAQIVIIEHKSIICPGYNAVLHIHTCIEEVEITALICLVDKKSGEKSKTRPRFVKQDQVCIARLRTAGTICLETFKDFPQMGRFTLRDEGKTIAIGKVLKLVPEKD

Row | SMILES | EC50 [nM]
1 | Cc1c(Cl)cc(NC(=O)CCc2ccc3c(c2)C(=O)N(C2CCC(=O)NC2=O)C3)cc1CN1CC(N2CCOCC2)C1 (configuration not stated) | 208
2 | Cc1c(Cl)cc(NC(=O)CCc2ccc3c(c2)C(=O)N(C2CCC(=O)NC2=O)C3)cc1CN1CCN(C)CC1 (configuration not stated) | 2200
